In ChEMBL document CHEMBL1147619, “Syntheses and EGFR kinase inhibitory activity of 6-substituted-4-anilino [1,7] and [1,8] naphthyridine-3-carbonitriles” (Bioorg Med Chem Lett, 2004):
In brackets after ≈: the same amount, converted by molar mass.

These compounds were tested on A-431 (assay: Inhibition of A431 human carcinoma cell proliferation).
Assay type: functional, cell-based

SMILES | IC50 [µg/mL]
CN(C)C/C=C/C(=O)Nc1ccc2ncc(C#N)c(Nc3cccc(Br)c3)c2c1 | 0.23 (≈ 0.511 µM)
CN(C)C/C=C/C(=O)Nc1cc2c(Nc3cccc(Br)c3)c(C#N)cnc2cn1 | 0.088 (≈ 0.195 µM)
CN(C)C/C=C/C(=O)Nc1cnc2ncc(C#N)c(Nc3cccc(Br)c3)c2c1 | 2.76 (≈ 6.12 µM)

What follows are compounds tested against T1, Epidermal growth factor receptor (Homo sapiens, UniProt P00533) (assay: Inhibition of epidermal growth factor receptor kinase autophosphorylation).
T1 sequence (P00533 whole entry): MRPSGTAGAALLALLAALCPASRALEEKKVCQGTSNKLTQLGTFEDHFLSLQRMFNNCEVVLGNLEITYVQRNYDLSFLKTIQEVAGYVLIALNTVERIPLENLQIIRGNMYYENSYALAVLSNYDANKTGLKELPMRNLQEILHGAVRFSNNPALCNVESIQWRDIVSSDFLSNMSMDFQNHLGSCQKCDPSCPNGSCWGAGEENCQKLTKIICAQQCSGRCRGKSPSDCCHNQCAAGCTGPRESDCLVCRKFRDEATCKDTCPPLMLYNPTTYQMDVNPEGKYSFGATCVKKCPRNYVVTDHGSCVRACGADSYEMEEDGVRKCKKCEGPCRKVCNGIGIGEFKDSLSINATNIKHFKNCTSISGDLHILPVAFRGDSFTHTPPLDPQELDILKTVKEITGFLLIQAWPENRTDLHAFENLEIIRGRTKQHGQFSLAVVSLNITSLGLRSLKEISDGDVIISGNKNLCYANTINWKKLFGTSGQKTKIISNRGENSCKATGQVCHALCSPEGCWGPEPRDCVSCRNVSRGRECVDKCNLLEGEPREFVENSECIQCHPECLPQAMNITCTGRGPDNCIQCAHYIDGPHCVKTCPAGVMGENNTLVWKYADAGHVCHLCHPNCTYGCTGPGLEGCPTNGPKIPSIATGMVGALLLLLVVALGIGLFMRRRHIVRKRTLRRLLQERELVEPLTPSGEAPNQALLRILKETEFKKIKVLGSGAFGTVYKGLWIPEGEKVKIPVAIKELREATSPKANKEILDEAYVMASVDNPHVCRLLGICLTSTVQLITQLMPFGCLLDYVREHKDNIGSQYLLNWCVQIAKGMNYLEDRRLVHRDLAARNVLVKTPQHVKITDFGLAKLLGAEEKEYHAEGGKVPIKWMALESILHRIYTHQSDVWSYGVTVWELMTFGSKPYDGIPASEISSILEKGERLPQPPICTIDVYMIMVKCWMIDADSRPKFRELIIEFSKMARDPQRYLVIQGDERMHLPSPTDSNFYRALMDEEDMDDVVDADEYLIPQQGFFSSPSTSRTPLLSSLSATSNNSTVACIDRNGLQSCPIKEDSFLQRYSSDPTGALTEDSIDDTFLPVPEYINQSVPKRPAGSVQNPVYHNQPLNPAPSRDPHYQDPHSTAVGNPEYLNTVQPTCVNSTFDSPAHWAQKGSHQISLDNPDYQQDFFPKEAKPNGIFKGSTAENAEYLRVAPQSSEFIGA

SMILES | IC50 [nM]
C=CC(=O)Nc1ccc2ncc(C#N)c(Nc3cccc(Br)c3)c2c1 | 86.9
C=CC(=O)Nc1cnc2ncc(C#N)c(Nc3cccc(Br)c3)c2c1 | 976
CC#CC(=O)Nc1ccc2ncc(C#N)c(Nc3cccc(Br)c3)c2c1 | > 1000
CC#CC(=O)Nc1cnc2ncc(C#N)c(Nc3ccc(F)c(Cl)c3)c2c1 | 6790
CN(C)C/C=C/C(=O)Nc1ccc2ncc(C#N)c(Nc3cccc(Br)c3)c2c1 | 123
CN(C)CCOc1cc2c(Nc3cccc(Br)c3)c(C#N)cnc2cn1 | > 10000
CN(C)C/C=C/C(=O)Nc1cc2c(Nc3cccc(Br)c3)c(C#N)cnc2cn1 | 8.6
CN(C)CCOc1cc2c(Nc3ccc(F)c(Cl)c3)c(C#N)cnc2cn1 | > 10000
CC#CC(=O)Nc1cnc2ncc(C#N)c(Nc3cccc(Br)c3)c2c1 | > 10000
CC#CC(=O)Nc1ccc2ncc(C#N)c(Nc3ccc(F)c(Cl)c3)c2c1 | 1030
CN(C)C/C=C/C(=O)Nc1cnc2ncc(C#N)c(Nc3cccc(Br)c3)c2c1 | 4130

The compounds below were run against T1, Epidermal growth factor receptor (assay: Inhibition of peptide substrate phosphorylation by epidermal growth factor receptor).

SMILES | IC50 [nM]
C=CC(=O)Nc1ccc2ncc(C#N)c(Nc3cccc(Br)c3)c2c1 | 9.7
C=CC(=O)Nc1cnc2ncc(C#N)c(Nc3cccc(Br)c3)c2c1 | 375
CC#CC(=O)Nc1ccc2ncc(C#N)c(Nc3cccc(Br)c3)c2c1 | 259
CC#CC(=O)Nc1cnc2ncc(C#N)c(Nc3ccc(F)c(Cl)c3)c2c1 | 3760
CN(C)C/C=C/C(=O)Nc1ccc2ncc(C#N)c(Nc3cccc(Br)c3)c2c1 | 37.2
CN(C)CCOc1cc2c(Nc3cccc(Br)c3)c(C#N)cnc2cn1 | > 10000
CN(C)C/C=C/C(=O)Nc1cc2c(Nc3cccc(Br)c3)c(C#N)cnc2cn1 | 1.9
CN(C)CCOc1cc2c(Nc3ccc(F)c(Cl)c3)c(C#N)cnc2cn1 | > 10000
CC#CC(=O)Nc1cnc2ncc(C#N)c(Nc3cccc(Br)c3)c2c1 | 6270
CC#CC(=O)Nc1ccc2ncc(C#N)c(Nc3ccc(F)c(Cl)c3)c2c1 | 330
CN(C)C/C=C/C(=O)Nc1cnc2ncc(C#N)c(Nc3cccc(Br)c3)c2c1 | 2040

These compounds were tested on SW-620 (assay: Inhibition of SW620 human carcinoma cell proliferation).
Assay type: functional, cell-based

SMILES | IC50 [µg/mL]
CN(C)C/C=C/C(=O)Nc1ccc2ncc(C#N)c(Nc3cccc(Br)c3)c2c1 | 2.8 (≈ 6.22 µM)
CN(C)C/C=C/C(=O)Nc1cc2c(Nc3cccc(Br)c3)c(C#N)cnc2cn1 | 0.356 (≈ 0.789 µM)
CN(C)C/C=C/C(=O)Nc1cnc2ncc(C#N)c(Nc3cccc(Br)c3)c2c1 | > 5

The compounds below were run on SK-BR-3 (assay: Inhibition of SKBr3 human carcinoma cell proliferation).
Assay type: functional, cell-based

SMILES | IC50 [µg/mL]
CN(C)C/C=C/C(=O)Nc1ccc2ncc(C#N)c(Nc3cccc(Br)c3)c2c1 | 0.089 (≈ 0.198 µM)
CN(C)C/C=C/C(=O)Nc1cc2c(Nc3cccc(Br)c3)c(C#N)cnc2cn1 | 0.036 (≈ 0.0798 µM)
CN(C)C/C=C/C(=O)Nc1cnc2ncc(C#N)c(Nc3cccc(Br)c3)c2c1 | 4.83 (≈ 10.7 µM)
